Assay results as given in patent US20060079573A1, “Methods and compositions for preventing vasospasm” (priority 2004, published 2006).

Columns and labels:
[1] = system: canine brachial arteries; assay: Contractile function of artery segments in organ chambers after WT soak; assay type: cell-based; details: for force of contraction in response to 5HT: 1 μM 5-HT; for force of contraction in response to NE: 1 μM NE; for force of contraction in response to U46: 3 μM U46619; for force of contraction in response to KCl: 60 mM KCl
Excerpt: Canine brachial arteries, equivalents of radial arteries in humans, were used in this study since they were more readily available and we could obtain longer segments than human radial arteries. Based on previous publications, it has been determined that the contractile and relaxation properties of these canine vessels are similar to the properties of human radial arteries in organ chamber studies [Corvera et al. (2003) Pretreatment with phenoxybenzamine attenuates the radial artery's vasoconstrictor response to α-adrenergic stimuli, J. Thorac. Cardiovasc. Surg., 126:1549-54; Velez et al., 2001]. The arteries were harvested as a pedicle graft and stored in 4° C. KH buffer (in mM/1: glucose 11; magnesium sulfate, 1.2; potassium phosphate 1.2; KCl, 4.7; sodium chloride 118; calcium chloride, 2.5) at pH 7.4 until ready for use.
The vessels were carefully skeletonized, cut into 4-5 mm segments, and soaked in a 1 mM solution of WT in KH buffer and 10% DMSO (used to increase solubility of WT), pH 7.4 at 37° C. for 60 min. Control vessels were soaked in KH buffer with 10% DMSO only. The vessels were then rinsed well with KH to remove all unbound drug. For testing of contractile responses, the arterial segments were mounted on steel hooks in glass organ chambers (Radnoti Glass, Monrovia, Calif.) in KH buffer at pH 7.4 and 37° C., and continuously bubbled with a gas mixture of 95% O2 and 5% CO2. One steel hook was held stationary while the other was attached to a force transducer. Force generated by the vessels in response to various agonists was recorded using an analog-to-digital converter and SPECTRUM Cardiovascular Acquisition and Analysis software (Wake Forest University, Winston-Salem, N.C.). The vessel segments were allowed to stabilize at a baseline tension of 3 g for 60 min prior to testing the effect of various vasoconstrictor agents. During this time, the buffer was changed every 20 min. The total time from the end of WT treatment until contractile responses were tested was approximately 2 h. The contractile responses to 1 μM NE (α1 receptor-dependent, calcium-dependent), 1 μM 5-HT (serotonin receptor-dependent, calcium-independent), 3 μM U46 (thromboxane A2 receptor-dependent, calcium-independent), and 60 mM KCl (receptor-independent depolarizing agent) were then quantified. […] The order in which the constricting agents were administered was varied randomly in order to avoid the effects of one drug on another. […] The vessels were thoroughly washed and allowed to stabilize for 20 min between vasoconstrictor agents. The resting tension was adjusted to 3 g during each stabilization period.
To test the duration of MLCK inhibition by the 60 min pre-treatment with 1 mM WT, a subset of vessels were harvested and treated with WT as above, then incubated in drug-free sterile culture medium [Dulbecco's modified eagle medium (Sigma, St Louis Mo.), with 10% newborn calf serum (Gibco, Inc.) and 1% penicillin-streptomycin] under sterile conditions for 48 h in an incubator aerated with 95% O2 and 5% CO2. The culture medium was changed every 12 h during this time. At the end of the 48 h period, the vessels were removed, rinsed with KH buffer, and contractile responses were tested as described above.

[2] = system: canine brachial arteries; assay: Endothelial-independent smooth muscle relaxation to SNP after U46 pre-constriction; assay type: cell-based; details: 48 h after 1 mM WT; lower SNP concentrations (≦0.5 μM); pre-constricted with 3 μM U46; controls 87.49±2.91%
Experimental: Cardiovasc. Surg., 126:179-85; van Son et al. (1992) Detrimental sequelae on the wall of the internal mammary artery caused by hydrostatic dilation with diluted papaverine solution, J. Thorac. Cardiovasc. Surg., 104:972-6]. Therefore, to test the vasorelaxation capacity of the vessels after treatment with WT, the vessels were pre-constricted with 3 μM U46, and then exposed to incrementally increasing concentrations (50 nM to […]) of SNP, a direct smooth muscle dilator.
The capacity of the vascular smooth muscle to relax independently of the endothelium was evaluated by pre-constricting vessels with U46, followed by exposure to incrementally increasing concentrations of SNP, a direct smooth muscle relaxing agent. […] Two hours after soaking, control vessels relaxed 99.04±7.30% from their pre-constricted state in response to SNP.

[3] = system: canine brachial arteries; assay: Histologic evaluation (H and E) of vessels for morphologic injury; assay type: cell-based; details: 48 h after 1 mM WT treatment and incubation
Experimental: Prolonged storage in cell culture environments has the potential to cause cellular injury, which might impair smooth muscle function. To confirm that the lack of the observed contraction in WT-treated vessels was not a function of cellular damage, a subset of vessels was tested for histological signs of injury and apoptosis after treatment with WT and incubation for 48 h. For histology, formalin-fixed vessels were embedded in paraffin blocks, cut into sections for slide preparation, and stained with hematoxylin and eosin (H and E) prior to examination for signs of morphologic damage.

[4] = system: canine brachial arteries; assay: TUNEL assay of endothelial and smooth muscle cell apoptosis in vessels; assay type: cell-based
Experimental: Endothelial and smooth muscle cell apoptosis was evaluated using the terminal deoxynucleotidyl transferase (TdT)-mediated dUTP nick end labeling (TUNEL) method. In preparation for the TUNEL assay, the vessels were embedded in optimal cutting temperature compound (OCT, Sakura Finetek, Torrance, Calif.). Cryosections from frozen tissue were obtained using a Hacker-Bright cryostat and thaw-mounted onto Fisher-Plus slides (Fisher Scientific). Determination of apoptosis was performed using an in situ cell death detection kit (Roche Applied Science, Indianapolis, Ind.). DNA strand breaks were labeled with fluorescein-dUTP, followed by the addition of a secondary, antifluorescein antibody conjugated with alkaline phosphatase, a converter which generates a red color from Vector Red substrate. Folio wing counterstaining with hematoxylin and dehydration in graded alcohols, the number of apoptotic cells (indicated by red-stained nuclei) per high power field (HPF) was counted under light microscopy and is expressed as a percentage of the total number of nuclei per HPF.

[5] = system: radial artery; details: cited from earlier work
[6] = system: radial and internal mammary arteries; details: cited from earlier work

Which “force of contraction in response to 5HT” value ([1]; 2 h after 60 min soak in 1 mM WT, control 9.64±0.67 g) does the source give for `COC[C@H]1OC(=O)c2coc3c2[C@@]1(C)C1=C(C3=O)[C@@H]2CCC(=O)[C@@]2(C)C[C@H]1OC(C)=O` [WT, Wortmannin] here?
Its value is 0.92 ± 0.35 g.

And the “force of contraction in response to 5HT” value ([1]; 48 h incubation after 1 mM WT soak, control 12.42±0.70 g)?
Its value is 4.67 ± 0.39 g.

And the “force of contraction in response to NE” value ([1]; 2 h after 60 min soak in 1 mM WT, control 7.22±0.37 g)?
Its value is 0.19 ± 0.07 g.

And the “force of contraction in response to NE” value ([1]; 48 h incubation after 1 mM WT soak, control 6.95±0.47 g)?
The value was 2.36 ± 0.17 g.

And the “force of contraction in response to U46” value ([1]; 2 h after 60 min soak in 1 mM WT, control 10.99±0.50 g)?
Its value is 1.25 ± 0.17 g.

What about the “force of contraction in response to U46” value ([1]; 48 h incubation after 1 mM WT soak, control 9.29±0.74 g) of the same compound?
Its value is 5.42 ± 0.34 g.

And the “force of contraction in response to KCl” value ([1]; 2 h after 60 min soak in 1 mM WT, control 15.00±0.48 g)?
The value was 1.98 ± 0.27 g.

What about the “force of contraction in response to KCl” value ([1]; 48 h incubation after 1 mM WT soak, control 13.32±0.60 g) of the same compound?
Its value is 7.49 ± 0.48 g.

And the contractile activity regained ([1]; 48 h after treatment)?
The contractile activity regained was “about 50%”.

And the “reduction of contractile responses / vasoconstriction” value ([1]; at 48 h following washout)?
The value was 50%.

What about the “relaxation response to SNP from pre-constricted state” value [2] of the same compound?
The value was 76.01±2.60%.

And the “microscopic evidence of injury, endothelium and elastic lamina (H and E)” value [3]?
Its value is “appeared normal”.

What about the “microscopic evidence of injury, smooth muscle (H and E)” value [3] of the same compound?
Its value is “minimal hypereosinophilic staining in the smooth muscle”.

What about the “TUNEL-positive cells in the smooth muscle” value ([4]; 48 h after WT treatment and incubation, control 0.35±0.16%) of the same compound?
The value was 4.63±1.04%.

What about the “TUNEL-positive cells in the endothelium” value ([4]; 48 h after WT treatment and incubation, control 4.47±2.90%, P=0.058) of the same compound?
The value was 16.88%±4.90.

What about the “apoptotic nuclei in smooth muscle layer versus control” value ([4]; FIG. 3, 400×) of the same compound?
Its value is “greater extent of apoptotic nuclei (black arrows) stained red by the TUNEL method in the smooth muscle layer of control vessels (A) as compared to WT-treated vessels”.

What about the “apoptotic nuclei in endothelium versus control” value ([4]; FIG. 4, 400×) of the same compound?
Its value is “greater extent of apoptotic nuclei (black arrows) stained red by the TUNEL method in the endothelium of control vessels (A) as compared to WT-treated vessels”.

Which results are given for `COc1ccc(Cc2nccc3cc(OC)c(OC)cc23)cc1OC` [papaverine]?
effect on contraction after washout (in words) ([5]; after the drug has been washed away): virtually no effect after the drug has been washed away; effect on endothelium (in words) [6]: causes both impairment of endothelial function and endothelial cell apoptosis

Which “prevention of alpha-agonist-induced contractions (in words)” value ([5]; 48 h following treatment) does the source give for `CC(COc1ccccc1)N(CCCl)Cc1ccccc1` (centres unmarked) [phenoxybenzamine] here?
The value was “effective in preventing alpha-agonist-induced contractions at 48 h following treatment”.
